Test results published in publication PMC6251817 (Acta Pharmaceutica Sinica. B, 2018).

target: T1, PTP1B (recombinant human GST-PTP1B) (Homo sapiens, UniProt P18031); experiment: pNPP hydrolysis, absorbance […] nm; type: biochemical
T1 sequence (P18031 1-435): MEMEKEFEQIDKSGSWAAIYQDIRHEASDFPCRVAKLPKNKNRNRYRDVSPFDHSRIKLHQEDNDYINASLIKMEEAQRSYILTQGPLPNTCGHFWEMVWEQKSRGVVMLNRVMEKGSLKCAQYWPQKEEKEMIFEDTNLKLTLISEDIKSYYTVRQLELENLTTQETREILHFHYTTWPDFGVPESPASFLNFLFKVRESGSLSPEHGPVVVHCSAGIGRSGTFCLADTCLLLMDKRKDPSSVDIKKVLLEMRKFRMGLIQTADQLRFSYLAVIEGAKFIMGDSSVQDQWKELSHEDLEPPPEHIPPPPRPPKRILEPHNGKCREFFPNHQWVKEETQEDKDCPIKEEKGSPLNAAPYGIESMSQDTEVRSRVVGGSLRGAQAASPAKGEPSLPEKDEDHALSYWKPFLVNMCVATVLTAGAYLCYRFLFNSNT

| IC50 [µM] | Compound |
| --- | --- |
| 4.9 | CN(C)c1ccc(C(=O)CCc2ccc(C(=O)Nc3ccc(C(=O)Nc4ccccc4)cc3)cc2)cc1 [compound 4, 4-(3-(4-(Dimethylamino)phenyl)-3-oxopropyl)-N-(4-(phenylcarbamoyl)phenyl)benzamide] |
| 7.26 | COc1ccc(C(=O)CCc2ccc(C(=O)Nc3ccc(C(=O)Nc4ccc(N5CCOCC5)cc4)cc3)cc2)cc1 [compound 8, 4-(3-(4-Methoxyphenyl)-3-oxopropyl)-N-(4-((4-morpholinophenyl)carbamoyl)phenyl)benzamide] |
| 8.81 | O=C(/C=C/c1ccc(C(=O)Nc2ccc(C(=O)Nc3ccccc3)cc2)cc1)c1ccc(F)cc1 [compound 9, (E)-4-(3-(4-Fluorophenyl)-3-oxoprop-1-en-1-yl)-N-(4-(phenylcarbamoyl)phenyl)benzamide] |
| 5.23 | Cc1ccc(C(=O)/C=C/c2ccc(C(=O)Nc3ccc(C(=O)Nc4ccccc4)cc3)cc2)cc1 [compound 10, (E)-4-(3-Oxo-3-(p-tolyl)prop-1-en-1-yl)-N-(4-(phenylcarbamoyl)phenyl)benzamide] |
| 7.74 | COc1ccc(/C=C/C(=O)c2ccc(C(=O)Nc3ccc(C(=O)Nc4ccccc4)cc3)cc2)cc1 [compound 15, (E)-4-(3-(4-Methoxyphenyl)acryloyl)-N-(4-(phenylcarbamoyl)phenyl)benzamide] |
| 8.16 | COc1ccc(C(=O)NCc2ccc(C(=O)Nc3ccc(C(=O)Nc4ccccc4)cc3)cc2)cc1 [compound 18, 4-Methoxy-N-(4-((4-(phenylcarbamoyl)phenyl)carbamoyl)benzyl)benzamide] |
| 6.85 | COc1ccc(C(=O)NCc2ccc(C(=O)Nc3ccc(C(=O)Nc4ccc(N5CCOCC5)cc4)cc3)cc2)cc1 [compound 20, 4-Methoxy-N-(4-((4-((4-morpholinophenyl)carbamoyl)phenyl)carbamoyl)benzyl)benzamide] |
| 4.76 | COc1ccc(C(=O)NCc2ccc(C(=O)Nc3ccc(C(=O)Nc4ccccc4OC)cc3)cc2)cc1 [compound 23, 4-Methoxy-N-(4-((4-((2-methoxyphenyl)carbamoyl)phenyl)carbamoyl)benzyl)benzamide] |
| 4.19 | COc1ccc(CC(=O)Nc2ccc(NC(=O)c3ccc(CCC(=O)c4ccc(OC)cc4)cc3)cc2)cc1 [compound 27, 4-(3-(4-Methoxyphenyl)-3-oxopropyl)-N-(4-(2-(4-methoxyphenyl)acetamido)phenyl)benzamide] |
| 5.91 | COc1ccc(CC(=O)Nc2ccc(NC(=O)c3ccc(/C=C/C(=O)c4ccc(OC)cc4)cc3)cc2)cc1 [compound 28, (E)-4-(3-(4-Methoxyphenyl)-3-oxoprop-1-en-1-yl)-N-(4-(2-(4-methoxyphenyl)acetamido)phenyl)benzamide] |
| 4.7 | COc1ccc(/C=C/C(=O)c2ccc(C(=O)Nc3ccc(NC(=O)Cc4ccc(OC)cc4)cc3)cc2)cc1 [compound 29, (E)-N-(4-(2-(4-Methoxyphenyl)acetamido)phenyl)-4-(3-(4-methoxyphenyl)acryloyl)benzamide] |
| 6.22 | COc1ccc(C(=O)NCc2ccc(C(=O)Nc3ccc(NC(=O)c4ccccc4)cc3)cc2)cc1 [compound 31, N-(4-Benzamidophenyl)-4-((4-methoxybenzamido)methyl)benzamide] |
| 24.3 | COc1ccc(C(=O)CCc2ccc(C(=O)Nc3cccc(C(=O)Nc4cc(OC)cc(OC)c4)c3)cc2)cc1 [compound 33, N-(3,5-Dimethoxyphenyl)-3-(4-(3-(4-methoxyphenyl)-3-oxopropyl)benzamido)benzamide] |
